Results taken from patent US20230391817A1, “5ALPHA-HYDROXY-6BETA-[2-(1-H-IMIDAZOL-4-YL)-ETHYLAMINO]-CHOLESTAN-3BETA-OL ANALOGUES AND PHARMACEUTICAL COMPOSITIONS COMPRISING SAME FOR USE IN THE TREATMENT OF CANCER” (priority 2020, published 2023).

What was measured:
[1] = test system: Neuro2a (murine neuroblastoma) cells; assay: Cytotoxicity on Neuro2a cells, trypan blue test; assay type: cell-based; conditions: 48 h
Experimental: For this experiment, a cell culture medium was prepared. The culture medium consisted of Dulbecco's Modified Eagle Medium (DMEM, sold by Westburg under the reference LO BE12-604F), comprising 4.5 g/L glucose with L-glutamine, to which 10% fetal calf serum (FCS) is added. Neuro2a (murine neuroblastoma) cells are introduced into this culture medium.
24-well dishes were seeded with 10 000 Neuro2a cells per well. After 72 hours (h) of culture under normal conditions, i.e., in an incubator at 37° C. with 5% CO2, the Neuro2a cells were treated for 48 h with 3β-fluoro-5α-hydroxy-6β-[2-(1H-imidazol-4-yl)ethylamino]-cholestane and 5α-hydroxy-6β-[2-(1H-imidazol-4-yl)ethylamino]cholestan-3β-ol at 100 nM, 1 μM and 10 μM. A control (CTL) is also performed using the previously described protocol without treatment with […]-5α-hydroxy-6β-[2-(1H-imidazol-4-yl)ethylamino]-cholestane and 5α-hydroxy-6β-[2-(1H-imidazol-4-yl)ethylamino]cholestan-3β-ol. The cell survival was quantified by means of a trypan blue test with automatic counting using the Biorad TC20 machine (TC20™ Automated Cell Counter). The trypan blue test is based on the integrity of cell membranes, which is disrupted in the dead cells. Trypan blue stains dead cells blue. The Biorad TC20 cell counter counts the proportion of blue and non-blue cells, and reports the percentage of cells. The results are represented in FIG. 1.

[2] = molecular target: T1, Cholesterol Epoxide Hydrolase (ChEH) (Homo sapiens, UniProt Q15125+Q9UBM7); assay: Cholesterol Epoxide Hydrolase (ChEH) activity in MCF-7 cells, [14C]5,6α-EC metabolism by TLC; assay type: cell-based; conditions: 1 μM, 24 h, [14C]5,6α-EC 0.6 μM
T1 construct: endogenous in cells; host or cells: MCF-7
Text: The compounds 5,6α-epoxycholesterol (5,6α-EC) and 5,6p-epoxycholesterol (5,6p-EC) are oxysterols involved in the anticancer pharmacology of tamoxifen, a widely used antitumor drug. Both are metabolized to cholestane-3β,5α,6β-triol (CT) by the enzyme cholesterol-5,6-epoxide hydrolase (ChEH), and CT is metabolized by the enzyme HSD11B2 (11β-hydroxysteroid dehydrogenase 2) to 6-oxocholestane-3β,5α-diol (OCDO), a tumor-promoting oncosterone.
MCF-7 cells are in a cell culture medium identical to that of Example 5 and are seeded in 6-well plates at 150 000 cells per well with three wells per treatment condition. […] Tamoxifen is used as a positive control for 3α-fluoro-5α-hydroxy-6β-[2-(1H-imidazol-4-yl)ethylamino]cholestane and 5α-hydroxy-6β-[2-(1H-imidazol-4-yl)ethylamino]cholestan-3β-ol (1 μM for all molecules).
After 24 hours of treatment, the media are collected and lipid extracts are prepared from the cell pellets by extraction with 100 μL of chloroform, 400 μL of methanol, and 300 μL of water.
The lipid extracts are analyzed by thin layer chromatography (TLC) using ethyl acetate (EtOAc) as eluent. The analysis is performed with a plate reader and then by autoradiography.

T1 sequence (Q15125 whole entry): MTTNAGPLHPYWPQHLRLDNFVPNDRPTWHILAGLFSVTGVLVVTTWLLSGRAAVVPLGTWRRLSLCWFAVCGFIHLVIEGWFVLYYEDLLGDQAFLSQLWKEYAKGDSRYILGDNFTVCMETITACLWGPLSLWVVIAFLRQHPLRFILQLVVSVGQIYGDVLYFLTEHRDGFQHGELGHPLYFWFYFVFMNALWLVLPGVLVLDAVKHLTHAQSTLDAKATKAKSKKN
T1 sequence (Q9UBM7 whole entry): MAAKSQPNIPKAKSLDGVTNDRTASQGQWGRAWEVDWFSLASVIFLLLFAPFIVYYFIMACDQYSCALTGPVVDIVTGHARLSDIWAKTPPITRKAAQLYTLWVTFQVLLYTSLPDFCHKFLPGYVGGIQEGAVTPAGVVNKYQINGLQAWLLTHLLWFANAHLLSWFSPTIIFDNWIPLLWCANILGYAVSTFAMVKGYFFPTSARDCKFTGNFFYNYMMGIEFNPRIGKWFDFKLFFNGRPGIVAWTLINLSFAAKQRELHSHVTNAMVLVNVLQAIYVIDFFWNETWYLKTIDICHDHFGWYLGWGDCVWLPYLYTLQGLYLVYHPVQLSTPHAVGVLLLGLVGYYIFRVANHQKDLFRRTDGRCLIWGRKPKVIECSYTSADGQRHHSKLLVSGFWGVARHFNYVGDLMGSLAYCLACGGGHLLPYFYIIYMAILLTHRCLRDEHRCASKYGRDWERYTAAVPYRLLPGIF

SMILES: CC(C)CCC[C@@H](C)[C@H]1CC[C@H]2[C@@H]3C[C@@H](NCCc4c[nH]cn4)[C@@]4(O)C[C@@H](F)CC[C@]4(C)[C@H]3CC[C@]12C [DX111, 3β-fluoro-5α-hydroxy-6β-[2-(1H-imidazol-4-yl)ethylamino]cholestane]
- percentage of cell survival relative to the control group ([1]; 100 nM): unchanged
- percentage of cell survival relative to the control group ([1]; 1 μM): 75%
- percentage of cell survival relative to the control group ([1]; 10 μM): 30%
- inhibition of ChEH activity [2]: almost total inhibition
